Measured values from patent US9980972B2, “Rho kinase inhibitors for use in treating familial amyotrophic lateral sclerosis” (GEORG-AUGUST-UNIVERSITÄT GÖTTINGEN STIFTUNG ÖFFENTLICHEN …, priority 2012, dated 2018).

Test system: sciatic nerve axons of SOD1 G93A mice
Experiment: Sciatic nerve axon numbers (axonal degeneration)
Format: in vivo, mouse
Settings: day 100, female, Fas30 vs transgenic vehicle
Protocol: Sciatic nerves were removed separately and postfixed for 24 h in 4% paraformaldehyde. […] After three washing steps the nerves were embedded in […] and Propylenoxide with a ratio of first 1:1 and then 2:1, each for 35 min. Before putting into a flat mould for drying and harding, Propylenoxide had to evaporate under a hood for 1 h. The sciatic nerves embedded in […] blocks were cut with a Microtom (Leica Ultracut) into semithin sections (380 nm) and were collected on gelatine coated glass slides. […] After washing in distilled water, slices were dried and mounted in […] cuts of sciatic nerve axons were evaluated from light microscopy images for axonal numbers and axoplasm size with the semi-automated counting and size measuring tool of the Image J software. In the d50 treatment group analyzed at […], a total of 17 female mice were counted from vehicle (5), Fas30 (7), and wildtype (5).

O=S(=O)(c1cccc2cnccc12)N1CCCNCC1 [Fasudil, 1-(5-isoquinolinesulfonyl)homopiperazine]
axonal number by axoplasmal diameter size range: no significant differences | total number of preserved axons in the sciatic nerve: comparable axon numbers
